Measured values from PubChem BioAssay (NCI).
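All cell lines were grown in 96-well plates and treated with compound for 48 hours. GI50 is the concentration that inhibits growth by half. Definition used: TGI = concentration required for complete inhibition of growth.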

How the values were obtained:
Experiment in all cases: DTP human tumour cell line panel, 48 h
[1] = tested on: RXF 393 renal
[2] = tested on: SNB-75 CNS
[3] = tested on: SK-MEL-5 melanoma
[4] = tested on: HCC-2998 colon
[5] = tested on: IGROV1 ovarian
[6] = tested on: OVCAR-8 ovarian
[7] = tested on: MDA-MB-435
[8] = tested on: HS 578T breast
[9] = tested on: A498 renal
[10] = tested on: SR leukemia
[11] = tested on: SF-295 CNS
[12] = tested on: EKVX NSCLC
[13] = tested on: ACHN renal
[14] = tested on: OVCAR-5 ovarian
[15] = tested on: HL-60(TB) leukemia
[16] = tested on: HOP-62 NSCLC
[17] = tested on: SF-539 CNS
[18] = tested on: UACC-257 melanoma
[19] = tested on: SW-620 colon
[20] = tested on: SK-MEL-2 melanoma
[21] = tested on: A549 NSCLC
[22] = tested on: TK-10 renal
[23] = tested on: MOLT-4 leukemia
[24] = tested on: SK-MEL-28 melanoma
[25] = tested on: HCT-116 colon
[26] = tested on: PC-3 prostate
[27] = tested on: RPMI-8226 leukemia
[28] = tested on: LOX IMVI melanoma
[29] = tested on: MDA-MB-231 breast
[30] = tested on: U251 CNS
[31] = tested on: NCI/ADR-RES ovarian
[32] = tested on: HOP-92 NSCLC
[33] = tested on: SK-OV-3 ovarian
[34] = tested on: KM12 colon
[35] = tested on: OVCAR-4 ovarian
[36] = tested on: K-562 leukemia
[37] = tested on: HT29 colon
[38] = tested on: M14 melanoma
[39] = tested on: UO-31 renal
[40] = tested on: NCI-H522 lung
[41] = tested on: DU-145 prostate
[42] = tested on: SNB-19 CNS
[43] = tested on: UACC-62 melanoma
[44] = tested on: SN12C renal
[45] = tested on: SF-268 CNS
[46] = tested on: NCI-H460 lung
[47] = tested on: 786-0 renal
[48] = tested on: MCF7 breast
[49] = tested on: MALME-3M melanoma
[50] = tested on: T-47D breast
[51] = tested on: CAKI-1 renal
[52] = tested on: NCI-H226 lung
[53] = tested on: COLO 205 colon
[54] = tested on: BT-549 breast
[55] = tested on: CCRF-CEM leukemia
[56] = tested on: HCT-15 colon
[57] = tested on: NCI-H23 lung

NC(N)=Nc1ccc(Oc2cccc(Oc3ccc(Cl)c(C(F)(F)F)c3)c2)cn1
GI50 [1]: 1790 nM | TGI [1]: 3.43 µM | GI50 [2]: 1330 nM | TGI [2]: 2.67 µM

COc1cc(NC2=C(Cl)C(=O)c3nc(C)ccc3C2=O)cc(OC)c1
GI50 [3]: 1620 nM | TGI [3]: 2.97 µM | GI50 [4]: 1810 nM | TGI [4]: 3.26 µM | GI50 [5]: 1730 nM | TGI [5]: 3.55 µM | GI50 [6]: 1640 nM | TGI [6]: 3.28 µM | GI50 [7]: 1720 nM | TGI [7]: 3.57 µM | GI50 [8]: 2430 nM | TGI [8]: 5.78 µM | GI50 [9]: 2350 nM | TGI [9]: 11.4 µM | GI50 [10]: 350 nM | TGI [10]: 2430 nM | GI50 [11]: 1990 nM | TGI [11]: 5.41 µM | GI50 [12]: 1600 nM | TGI [12]: 3.12 µM | GI50 [13]: 1670 nM | TGI [13]: 3.04 µM | GI50 [14]: 2.38 µM | TGI [14]: 5.79 µM | GI50 [15]: 1380 nM | TGI [15]: 4.65 µM | GI50 [16]: 4260 nM | TGI [16]: 14.1 µM | GI50 [17]: 1790 nM | TGI [17]: 3.22 µM | GI50 [18]: 1510 nM | TGI [18]: 2.85 µM | GI50 [19]: 1760 nM | TGI [19]: 3.47 µM | GI50 [20]: 1590 nM | TGI [20]: 3.1 µM | GI50 [21]: 2830 nM | TGI [21]: 8.97 µM | GI50 [22]: 2320 nM | TGI [22]: 3.78 µM | GI50 [23]: 1500 nM | TGI [23]: 7 µM | GI50 [24]: 1790 nM | TGI [24]: 3.23 µM | GI50 [25]: 1530 nM | TGI [25]: 2.88 µM | GI50 [26]: 2560 nM | TGI [26]: 10.4 µM | GI50 [27]: 1790 nM | TGI [27]: 5.19 µM | GI50 [28]: 1100 nM | TGI [28]: 2320 nM | GI50 [29]: 1460 nM | TGI [29]: 3.08 µM | GI50 [30]: 1920 nM | TGI [30]: 4.44 µM | GI50 [31]: 1810 nM | TGI [31]: 4.47 µM | GI50 [32]: 1730 nM | TGI [32]: 3170 nM | GI50 [1]: 1630 nM | TGI [1]: 2.99 µM | GI50 [33]: 12.6 µM | TGI [33]: 25.1 µM | GI50 [34]: 13 µM | TGI [34]: 26.6 µM | GI50 [35]: 1400 nM | TGI [35]: 2820 nM | GI50 [36]: 381 nM | TGI [36]: > 100 µM | GI50 [37]: 1.87 µM | TGI [37]: 3.48 µM | GI50 [38]: 1690 nM | TGI [38]: 3090 nM | GI50 [39]: 1690 nM | TGI [39]: 3.06 µM | GI50 [40]: 1560 nM | TGI [40]: 3.06 µM | GI50 [41]: 1840 nM | TGI [41]: 3.55 µM | GI50 [42]: 5.82 µM | TGI [42]: 18.8 µM | GI50 [43]: 1770 nM | TGI [43]: 3.42 µM | GI50 [44]: 1710 nM | TGI [44]: 3.25 µM | GI50 [45]: 3250 nM | TGI [45]: 14.4 µM | GI50 [46]: 2680 nM | TGI [46]: 8.07 µM | GI50 [47]: 1520 nM | TGI [47]: 2.88 µM | GI50 [48]: 1820 nM | TGI [48]: 5.33 µM | GI50 [49]: 1760 nM | TGI [49]: 3.28 µM | GI50 [50]: 1500 nM | TGI [50]: 3.62 µM | GI50 [2]: 1940 nM | TGI [2]: 5.37 µM | GI50 [51]: 1760 nM | TGI [51]: 3.15 µM | GI50 [52]: 2820 nM | TGI [52]: 8.35 µM | GI50 [53]: 1.68 µM | TGI [53]: 3.08 µM | GI50 [54]: 1970 nM | TGI [54]: 3.4 µM

COc1ccc(-c2nnc(SCc3ccc(O)c4ncccc34)n2-c2ccccc2)cc1
GI50 [3]: 720 nM | TGI [3]: 3.56 µM | GI50 [4]: 1190 nM | TGI [4]: > 100 µM | GI50 [5]: 892 nM | TGI [5]: 25 µM | GI50 [6]: 447 nM | TGI [6]: 96.9 µM | GI50 [7]: 468 nM | TGI [7]: > 100 µM | GI50 [8]: 491 nM | TGI [8]: 10 µM | GI50 [9]: 2230 nM | TGI [9]: 12.5 µM | GI50 [10]: 371 nM | TGI [10]: > 100000 nM | GI50 [11]: 449 nM | TGI [11]: 6.84 µM | GI50 [12]: 1050 nM | TGI [12]: 10.3 µM | GI50 [55]: 424 nM | TGI [55]: > 100 µM | GI50 [14]: 3.96 µM | TGI [14]: > 100 µM | GI50 [15]: 397 nM | TGI [15]: 3.41 µM | GI50 [16]: 1000 nM | TGI [16]: 16.7 µM | GI50 [17]: 605 nM | TGI [17]: 5.04 µM | GI50 [18]: 1020 nM | TGI [18]: 10.7 µM | GI50 [19]: 438 nM | TGI [19]: > 100 µM | GI50 [20]: 1160 nM | TGI [20]: 6.71 µM | GI50 [21]: 986 nM | TGI [21]: > 60 µM | GI50 [22]: 870 nM | TGI [22]: 7.51 µM | GI50 [23]: 508 nM | TGI [23]: > 100 µM | GI50 [24]: 726 nM | TGI [24]: 31.3 µM | GI50 [25]: 361 nM | TGI [25]: 5.4 µM | GI50 [26]: 526 nM | TGI [26]: 28.3 µM | GI50 [27]: 493 nM | TGI [27]: > 100 µM | GI50 [28]: 478 nM | TGI [28]: 2620 nM | GI50 [29]: 922 nM | TGI [29]: 26.7 µM | GI50 [30]: 389 nM | TGI [30]: 13.8 µM | GI50 [31]: 290 nM | TGI [31]: 5.7 µM | GI50 [32]: 231 nM | TGI [32]: 818 nM | GI50 [56]: 328 nM | TGI [56]: > 100 µM | GI50 [1]: 915 nM | TGI [1]: 11.1 µM | GI50 [33]: 0.745 µM | TGI [33]: 9.23 µM | GI50 [34]: 0.619 µM | TGI [34]: > 89 µM | GI50 [35]: 739 nM | TGI [35]: > 100000 nM | GI50 [36]: 370 nM | TGI [36]: > 100 µM | GI50 [37]: 4.9 µM | TGI [37]: > 100 µM | GI50 [38]: 451 nM | TGI [38]: 2500 nM | GI50 [40]: 479 nM | TGI [40]: 11.1 µM | GI50 [41]: 637 nM | TGI [41]: > 53.5 µM | GI50 [42]: 0.553 µM | TGI [42]: > 40.9 µM | GI50 [43]: 1310 nM | TGI [43]: 4.98 µM | GI50 [44]: 468 nM | TGI [44]: > 100 µM | GI50 [45]: 605 nM | TGI [45]: 56.6 µM | GI50 [46]: 385 nM | TGI [46]: 3.31 µM | GI50 [57]: 661 nM | TGI [57]: 30.4 µM | GI50 [47]: 891 nM | TGI [47]: 9.81 µM | GI50 [48]: 395 nM | TGI [48]: > 100 µM | GI50 [49]: 968 nM | TGI [49]: 5.21 µM | GI50 [50]: 929 nM | TGI [50]: 4.2 µM | GI50 [2]: 951 nM | TGI [2]: 6.13 µM | GI50 [51]: 637 nM | TGI [51]: 4.29 µM | GI50 [52]: 2460 nM | TGI [52]: 98 µM | GI50 [53]: 6.71 µM | TGI [53]: > 100 µM | GI50 [54]: 572 nM | TGI [54]: 17 µM
